# In patent EP2970215B1, “PYRROLIDINE DERIVATIVES, PHARMACEUTICAL COMPOSITIONS CONTAINING THEM, AND THEIR USE IN THERAPY” (AbbVie Deutschland GmbH & Co. KG, priority 2013, dated 2014):
# Target: T1, human GlyT1c transporter (Homo sapiens, UniProt P48067)
# T1 construct: expressed in transfected cells; host or cells: CHO cells (recombinant; line hGlyT1c_5_CHO is named for the uptake assay)
# T1 sequence (P48067 1-706): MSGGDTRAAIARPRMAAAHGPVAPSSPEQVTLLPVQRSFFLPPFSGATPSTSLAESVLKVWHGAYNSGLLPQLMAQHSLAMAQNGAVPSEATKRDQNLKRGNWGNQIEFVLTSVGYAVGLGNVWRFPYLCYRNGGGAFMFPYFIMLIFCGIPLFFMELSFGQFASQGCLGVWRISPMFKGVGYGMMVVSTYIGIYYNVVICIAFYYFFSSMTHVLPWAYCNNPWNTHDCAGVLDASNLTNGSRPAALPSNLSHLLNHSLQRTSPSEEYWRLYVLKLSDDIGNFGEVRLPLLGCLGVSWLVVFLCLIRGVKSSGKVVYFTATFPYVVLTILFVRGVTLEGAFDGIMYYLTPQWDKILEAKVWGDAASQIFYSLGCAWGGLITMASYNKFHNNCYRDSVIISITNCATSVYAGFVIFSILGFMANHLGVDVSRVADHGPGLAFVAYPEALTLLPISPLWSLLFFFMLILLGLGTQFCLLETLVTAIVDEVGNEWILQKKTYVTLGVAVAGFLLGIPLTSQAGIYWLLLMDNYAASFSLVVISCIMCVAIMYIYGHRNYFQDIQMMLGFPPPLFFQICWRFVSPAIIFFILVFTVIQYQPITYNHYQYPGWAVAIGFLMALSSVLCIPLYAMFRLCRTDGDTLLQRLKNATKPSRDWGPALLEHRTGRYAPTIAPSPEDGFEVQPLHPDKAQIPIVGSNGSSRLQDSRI
# Test: Radioligand binding assay using recombinant CHO cell membranes expressing human GlyT1
# Settings: radioligand binding to human GlyT1c transporter-expressing membranes
# Description: 2. Radioligand binding assays using recombinant CHO cell membranes expressing human GlyT1: […]
row,Compound,Ki [nM]
1,"Cn1cnc(S(=O)(=O)N2C[C@@H](NCc3ccc(C(F)(F)F)cc3Cl)[C@H](c3ccc(F)cc3)C2)c1 (relative stereo) [Example 150, trans-N-[2-chloro-4-(trifluoromethyl)benzyl]-4-(4-fluorophenyl)-1-[(1-methyl-1H-imidazol-4-yl)sulfonyl]pyrrolidin-3-amine]",≤ 1
2,"Cn1cnc(S(=O)(=O)N2C[C@H](NCc3cccn4ccnc34)[C@@H](c3ccccc3)C2)c1 [Example 535, (3R,4S)-N-(imidazo[1,2-a]pyridin-8-ylmethyl)-1-[(1-methyl-1H-imidazol-4-yl)sulfonyl]-4-phenylpyrrolidin-3-amine]",≤ 10000
3,"Cc1ccccc1N[C@@H]1CN(S(=O)(=O)c2cn(C)cn2)C[C@H]1c1ccc(F)cc1 (relative stereo) [Example 84, trans-4-(4-fluorophenyl)-1-[(1-methyl-1H-imidazol-4-yl)sulfonyl]-N-(2-methylphenyl)pyrrolidin-3-amine]",≤ 1000
4,"Cn1cnc(S(=O)(=O)N2C[C@@H](NCc3ccc(C(F)(F)F)c(Cl)c3)[C@H](c3ccc(F)cc3)C2)c1 (relative stereo) [Example 151, trans-N-[3-chloro-4-(trifluoromethyl)benzyl]-4-(4-fluorophenyl)-1-[(1-methyl-1H-imidazol-4-yl)sulfonyl]pyrrolidin-3-amine]",≤ 100
5,"Cn1cnc(S(=O)(=O)N2C[C@@H](Nc3ccc(F)cc3)[C@H](c3ccc(F)cc3)C2)c1 [Example 324, (3S,4R)-N,4-bis(4-fluorophenyl)-1-[(1-methyl-1H-imidazol-4-yl)sulfonyl]pyrrolidin-3-amine]",≤ 10000
6,"Cn1cnc(S(=O)(=O)N2C[C@@H](C(=O)Nc3ccc(C(F)(F)F)cc3)[C@H](c3ccc(F)cc3)C2)c1 (relative stereo) [Example 243, Trans-4-(4-fluorophenyl)-1-[(1-methyl-1H-imidazol-4-yl)sulfonyl]-N-[4-(trifluoromethyl)phenyl]pyrrolidine-3-carboxamide]",≤ 1000
7,"O=C(N[C@@H]1CN(S(=O)(=O)c2cccnc2)C[C@H]1c1ccccc1)c1cccc(C(F)(F)F)c1Cl (relative stereo) [Example 45, 2-chloro-N-[trans-4-phenyl-1-(pyridin-3-ylsulfonyl)pyrrolidin-3-yl]-3-(trifluoromethyl)benzamide]",≥ 10000
8,"Cn1cnc(S(=O)(=O)N2C[C@@H](Nc3cccc(C(F)(F)F)n3)[C@H](c3ccc(F)cc3)C2)c1 (relative stereo) [Example 180, N-{trans-4-(4-fluorophenyl)-1-[(1-methyl-1H-imidazol-4-yl)sulfonyl]pyrrolidin-3-yl}-6-(trifluoromethyl)pyridin-2-amine]",≤ 1000
9,"Cn1cnc(S(=O)(=O)N2C[C@@H](NC(=O)c3ccccc3C#N)[C@H](c3ccccc3)C2)c1 (relative stereo) [Example 32, 2-cyano-N-{trans-1-[(1-methyl-1H-imidazol-4-yl)sulfonyl]-4-phenylpyrrolidin-3-yl} benzamide]",≤ 10000
10,"Cn1cnc(S(=O)(=O)N2C[C@@H](C(=O)NCc3ccc(F)c(Cl)c3)[C@H](c3ccc(F)cc3)C2)c1 (relative stereo) [Example 642, Trans-N-(3-chloro-4-fluorobenzyl)-4-(4-fluorophenyl)-1-[(1-methyl-1H-imidazol-4-yl)sulfonyl]pyrrolidine-3-carboxamide]",≤ 10
11,"Cn1cnc(S(=O)(=O)N2C[C@@H](NC(=O)c3ccccc3Cl)[C@H](c3ccccc3)C2)c1 (relative stereo) [Example 14, 2-chloro-N-{trans-1-[(1-methyl-1H-imidazol-4-yl)sulfonyl]-4-phenylpyrrolidin-3-yl}benzamide]",≤ 1000
